# In US20160046604A1, “HETEROARYL SUBSTITUTED INDAZOLES” (BAYER PHARMA AKTIENGESELLSCHAFT, priority 2013, published 2016):
# Like-named read-outs stand apart in the source and are kept apart here.
# Legend:
# [1] = molecular target: T1, catalytic domain of human Bub1 (amino acids 704-1085) (Homo sapiens, UniProt O43683); test: Bub1 kinase assay (TR-FRET); assay type: biochemical
# T1 construct: catalytic domain of human Bub1 (amino acids 704-1085); His6 (N); made in house; host or cells: Hi5 insect cells
# T1 sequence (O43683 704-1085): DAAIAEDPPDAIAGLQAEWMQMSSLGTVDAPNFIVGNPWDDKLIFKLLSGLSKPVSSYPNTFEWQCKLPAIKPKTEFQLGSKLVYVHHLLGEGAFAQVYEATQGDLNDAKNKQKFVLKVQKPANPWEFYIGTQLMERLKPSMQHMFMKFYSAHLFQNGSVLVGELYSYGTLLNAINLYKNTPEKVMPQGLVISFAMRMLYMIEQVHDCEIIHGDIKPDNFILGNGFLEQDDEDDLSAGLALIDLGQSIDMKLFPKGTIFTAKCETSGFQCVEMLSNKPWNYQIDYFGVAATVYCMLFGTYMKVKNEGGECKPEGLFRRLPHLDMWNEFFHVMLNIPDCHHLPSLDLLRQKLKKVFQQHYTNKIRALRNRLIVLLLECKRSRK
# Description: To this end, 100-fold concentrated compound solutions (in DMSO) were previously prepared by serial dilution (1:3.4) of 2 mM stocks in a clear low volume 384-well source microtiter plate (Greiner Bio-One, Frickenhausen, Germany), from which 50 nL of compounds were transferred into a black low volume test microtiter plate from the same supplier. […] The resulting mixture (5 μL final volume) was incubated at 22° C. during 60 min., and the reaction was stopped by the addition of 5 μL of an aqueous EDTA-solution (50 mM EDTA, in 100 mM HEPES pH 7.5 and 0.2% (w/v) bovine serum albumin) which also contained the TR-FRET detection reagents (0.2 μM streptavidin-XL665 [Cisbio Bioassays, Codolet, France] and 1 nM anti-phoshoSerine antibody [Merck Millipore, cat. #35-001] and 0.4 nM LANCE EU-W1024 labeled anti-mouse IgG antibody [Perkin-Elmer, product no. AD0077, alternatively a Terbium-cryptate-labeled anti-mouse IgG antibody from Cisbio Bioassays can be used]). The stopped reaction mixture was further incubated 1 h at 22° C. in order to allow the formation of complexes between peptides and detection reagents. Subsequently, the amount of product was evaluated by measurement of the resonance energy transfer from the Eu-chelate-antibody complex recognizing the Phosphoserine residue to the streptavidin-XL665 bound to the biotin moiety of the peptide. […] IC50 values were calculated by fitting the normalized inhibition data to a 4-parameter logistic equation (Minimum, Maximum, IC50, Hill; Y=Max+(Min−Max)/(1+(X/IC50)Hill)).
# [2] = system: HeLa human cervical tumor cells; test: Proliferation assay (HeLa cell line); details: 96 h, read-out: Biological Assay 2: Proliferation assay (HeLa cell line) median IC50;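 further: crystal violet staining, absorbance at 595 nm, 0.001–10 µM test range, 4-day exposure, 0% is cell number at dosing and 100% untreated growth, IC50 from 4-parameter fit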
# Description: Cultivated HeLa human cervical tumor cells (cells were ordered from ATCC CCL-2) were plated at a density of 3000 cells/well in a 96-well multititer plates in 200 microL DMEM/HAMS F12 culture medium (Biochrom F4815) supplemented with 10% fetal calf serum. After 24 hours, the cells of one plate (zero-point plate) were stained with crystal violet (see below), while the medium of the other plates was replaced by fresh culture medium (200 microL) containing the test substances in various concentrations (0 microM, as well as in the range of 0.001-10 microM; the final concentration of the solvent dimethyl sulfoxide was 0.5%). The cells were incubated for 4 days in the presence of test substances. Cell proliferation was determined by staining the cells with crystal violet: the cells were fixed by adding 20 microL/measuring point of an 11% glutaric aldehyde solution for 15 minutes at room temperature. After three washing cycles of the fixed cells with water, the plates were dried at room temperature. The cells were stained by adding 100 microL/measuring point of a 0.1% crystal violet solution (pH 3.0). After three washing cycles of the stained cells with water, the plates were dried at room temperature. The dye was dissolved by adding 100 microL/measuring point of a 10% acetic acid solution. Absorption was determined by photometry at a wavelength of 595 nm. The change of cell number, in percent, was calculated by normalization of the measured values to the absorption values of the zero-point plate (=0%) and the absorption of the untreated (0 microM) cells (=100%). The IC50 values were determined by means of a 4 parameter fit.
# [3] = TR-FRET, recombinant catalytic domain of human Bub1, ATP 10 μM, peptide substrate 1 μM, 60 min at 22° C., read-out: Biological Assay 1: Bub1 kinase assay median IC50
Structure (SMILES),IC50 [1] [nM],IC50 [2] [nM],"IC50 [1, 3] [nM]"
"COc1cnc(-c2nn(Cc3c(C)noc3C)c3ccccc23)nc1Nc1ccncc1 [Example 2-1-3, 2-{1-[(3,5-dimethyl-1,2-oxazol-4-yl)methyl]-1H-indazol-3-yl}-5-methoxy-N-(pyridin-4-yl)pyrimidin-4-amine]",–,> 10000,30
"COc1cnc(-c2nn(Cc3cnn(C)c3C)c3ccccc23)nc1Nc1ccncc1 [Example 2-1-4, 2-{1-[(1,5-dimethyl-1H-pyrazol-4-yl)methyl]-1H-indazol-3-yl}-5-methoxy-N-(pyridin-4-yl)pyrimidin-4-amine]",–,> 10000,42
"COc1cnc(-c2nn(Cc3c(C)nnn3C(F)F)c3ccccc23)nc1Nc1ccncc1 [Example 2-1-6, 2-(1-{[1-(difluoromethyl)-4-methyl-1H-1,2,3-triazol-5-yl]methyl}-1H-indazol-3-yl)-5-methoxy-N-(pyridin-4-yl)pyrimidin-4-amine]",–,–,150
"COc1cnc(-c2nn(Cc3c(C(F)F)nn(C)c3OCC(F)(F)F)c3ccccc23)nc1Nc1ccncc1 [Example 2-1-7, 2-(1-{[3-(difluoromethyl)-1-methyl-5-(2,2,2-trifluoroethoxy)-1H-pyrazol-4-yl]methyl}-1H-indazol-3-yl)-5-methoxy-N-(pyridin-4-yl)pyrimidin-4-amine]",450,–,–
"COc1cnc(-c2nn(Cc3c(C(F)(F)F)nnn3C)c3ccccc23)nc1Nc1ccncc1 [Example 2-1-8, 5-methoxy-2-(1-{[1-methyl-4-(trifluoromethyl)-1H-1,2,3-triazol-5-yl]methyl}-1H-indazol-3-yl)-N-(pyridin-4-yl)pyrimidin-4-amine]",–,> 10000,610
"COc1cnc(-c2nn(Cc3c(C)nnn3C(F)F)c3ccccc23)nc1N(Cc1c(C)nnn1C(F)F)c1ccncc1 [Example 2-1-9, N-{[1-(difluoromethyl)-4-methyl-1H-1,2,3-triazol-5-yl]methyl}-2-(1-{[1-(difluoromethyl)-4-methyl-1H-1,2,3-triazol-5-yl]methyl}-1H-indazol-3-yl)-5-methoxy-N-(pyridin-4-yl)pyrimidin-4-amine]",–,–,790
"COc1cnc(-c2nn(Cc3nn(C)cc3Cl)c3ccccc23)nc1Nc1ccncc1 [Example 2-2-2, 2-{1-[(4-chloro-1-methyl-1H-pyrazol-3-yl)methyl]-1H-indazol-3-yl}-5-methoxy-N-(pyridin-4-yl)pyrimidin-4-amine]",–,4400,46
"COc1cnc(-c2nn(Cc3nsc(N)n3)c3ccccc23)nc1Nc1ccncc1 [Example 2-2-3, 2-{1-[(5-amino-1,2,4-thiadiazol-3-yl)methyl]-1H-indazol-3-yl}-5-methoxy-N-(pyridin-4-yl)pyrimidin-4-amine]",–,> 10000,54
"COc1cnc(-c2nn(Cc3cc(C(C)C)no3)c3ccccc23)nc1Nc1ccncc1C(N)=O [Example 2-2-9, 4-[(2-{1-[(3-isopropyl-1,2-oxazol-5-yl)methyl]-1H-indazol-3-yl}-5-methoxypyrimidin-4-yl)amino]nicotinamide]",6.9,3900,–
"COc1cnc(-c2nn(Cc3cscn3)c3ccccc23)nc1Nc1ccncc1C(N)=O [Example 2-2-11, 4-({5-methoxy-2-[1-(1,3-thiazol-4-ylmethyl)-1H-indazol-3-yl]pyrimidin-4-yl}amino)nicotinamide]",8,8800,–
"COc1cnc(-c2nn(Cc3nnc(C)o3)c3ccccc23)nc1Nc1ccncc1 [Example 2-2-14, 5-methoxy-2-{1-[(5-methyl-1,3,4-oxadiazol-2-yl)methyl]-1H-indazol-3-yl}-N-(pyridin-4-yl)pyrimidin-4-amine]",–,> 10000,870
"CNC(=O)c1cnccc1Nc1nc(-c2nn(Cc3nnc(C)o3)c3ccccc23)ncc1OC [Example 2-2-15, 4-[(5-methoxy-2-{1-[(5-methyl-1,3,4-oxadiazol-2-yl)methyl]-1H-indazol-3-yl}pyrimidin-4-yl)amino]-N-methylnicotinamide]",99,–,–
"CCOC(=O)c1cnccc1Nc1cc(N)nc(-c2nn(Cc3c(C)noc3C)c3ccccc23)n1 [Example 2-3-1, ethyl 4-[(6-amino-2-{1-[(3,5-dimethyl-1,2-oxazol-4-yl)methyl]-1H-indazol-3-yl}pyrimidin-4-yl)amino]pyridine-3-carboxylate]",70,> 10000,–
"Cc1noc(C)c1Cn1nc(-c2nc(N)cc(Nc3ccncc3C(=O)NCCO)n2)c2ccccc21 [Example 2-4-1, 4-[(6-amino-2-{1-[(3,5-dimethyl-1,2-oxazol-4-yl)methyl]-1H-indazol-3-yl}pyrimidin-4-yl)amino]-N-(2-hydroxyethyl)nicotinamide]",34,–,–

# Second part, the compound after the results:
IC50 [1] [nM],IC50 [2] [nM],"IC50 [1, 3] [nM]",Structure (SMILES)
8.4,2600,–,"COc1cnc(-c2nn(Cc3c(Cl)ccnc3Cl)c3ccccc23)nc1Nc1ccncc1 [Example 2-1-1, 2-{1-[(2,4-dichloropyridin-3-yl)methyl]-1H-indazol-3-yl}-5-methoxy-N-(pyridin-4-yl)pyrimidin-4-amine]"
9,> 10000,–,"COc1cnc(-c2nn(Cc3ncc(F)cc3F)c3ccccc23)nc1Nc1ccncc1 [Example 2-1-2, 2-{1-[(3,5-difluoropyridin-2-yl)methyl]-1H-indazol-3-yl}-5-methoxy-N-(pyridin-4-yl)pyrimidin-4-amine]"
58,7100,–,"COc1cnc(-c2nn(Cc3ccc(C(F)(F)F)nc3C)c3ccccc23)nc1Nc1ccncc1 [Example 2-1-5, 5-methoxy-2-(1-{[2-methyl-6-(trifluoromethyl)pyridin-3-yl]methyl}-1H-indazol-3-yl)-N-(pyridin-4-yl)pyrimidin-4-amine]"
3200,–,–,"COc1cnc(-c2nn(Cc3c(C(F)(F)F)nn(C)c3C(F)F)c3ccccc23)nc1Nc1ccncc1 [Example 2-1-10, 2-(1-{[5-(difluoromethyl)-1-methyl-3-(trifluoromethyl)-1H-pyrazol-4-yl]methyl}-1H-indazol-3-yl)-5-methoxy-N-(pyridin-4-yl)pyrimidin-4-amine]"
–,> 10000,8.9,"COc1cnc(-c2nn(Cc3c(Cl)cnn3C)c3ccccc23)nc1Nc1ccncc1 [Example 2-2-1, 2-{1-[(4-chloro-1-methyl-1H-pyrazol-5-yl)methyl]-1H-indazol-3-yl}-5-methoxy-N-(pyridin-4-yl)pyrimidin-4-amine]"
–,> 10000,280,"COCc1noc(Cn2nc(-c3ncc(OC)c(Nc4ccncc4)n3)c3ccccc32)n1 [Example 2-2-4, 5-methoxy-2-(1-{[3-(methoxymethyl)-1,2,4-oxadiazol-5-yl]methyl}-1H-indazol-3-yl)-N-(pyridin-4-yl)pyrimidin-4-amine]"
–,> 10000,540,"CNC(=O)c1nc(Cn2nc(-c3ncc(OC)c(Nc4ccncc4)n3)c3ccccc32)no1 [Example 2-2-5, 3-({3-[5-methoxy-4-(pyridin-4-ylamino)pyrimidin-2-yl]-1H-indazol-1-yl}methyl)-N-methyl-1,2,4-oxadiazole-5-carboxamide]"
–,–,1600,"COc1cnc(-c2nn(Cc3cn4cccnc4n3)c3ccccc23)nc1Nc1ccncc1 [Example 2-2-6, 2-[1-(imidazo[1,2-a]pyrimidin-2-ylmethyl)-1H-indazol-3-yl]-5-methoxy-N-(pyridin-4-yl)pyrimidin-4-amine]"
3100,> 10000,–,"COc1cnc(-c2nn(Cc3cc(=O)[nH]c(=O)[nH]3)c3ccccc23)nc1Nc1ccncc1 [Example 2-2-7, 6-({3-[5-methoxy-4-(pyridin-4-ylamino)pyrimidin-2-yl]-1H-indazol-1-yl}methyl)pyrimidine-2,4(1H,3H)-dione]"
–,> 10000,17,"CNC(=O)c1cnccc1Nc1nc(-c2nn(Cc3nc(COC)no3)c3ccccc23)ncc1OC [Example 2-2-8, 4-{[5-methoxy-2-(1-{[3-(methoxymethyl)-1,2,4-oxadiazol-5-yl]methyl}-1H-indazol-3-yl)pyrimidin-4-yl]amino}-N-methylnicotinamide]"
4.8,> 10000,–,"COCc1noc(Cn2nc(-c3ncc(OC)c(Nc4ccncc4C(N)=O)n3)c3ccccc32)n1 [Example 2-2-10, 4-{[5-methoxy-2-(1-{[3-(methoxymethyl)-1,2,4-oxadiazol-5-yl]methyl}-1H-indazol-3-yl)pyrimidin-4-yl]amino}nicotinamide]"
5.7,> 10000,–,"CNC(=O)c1cnccc1Nc1nc(-c2nn(Cc3cc(C(C)C)no3)c3ccccc23)ncc1OC [Example 2-2-12, 4-[(2-{1-[(3-isopropyl-1,2-oxazol-5-yl)methyl]-1H-indazol-3-yl}-5-methoxypyrimidin-4-yl)amino]-N-methylnicotinamide]"
22,> 10000,–,"COc1cnc(-c2nn(Cc3nnc(C)o3)c3ccccc23)nc1Nc1ccncc1C(N)=O [Example 2-2-13, 4-[(5-methoxy-2-{1-[(5-methyl-1,3,4-oxadiazol-2-yl)methyl]-1H-indazol-3-yl}pyrimidin-4-yl)amino]nicotinamide]"
